Tests used:
[1] = test system: ICR mice; experiment: Rotarod test (sensorimotor function); format: in vivo, mouse; conditions: 50 mg/kg oral daily for 2 weeks, 4 to 40 rpm, vs negative control, p<0.005, FIG. 3
Experimental: To confirm an effect of myricetin on a sensorimotor function of a mouse, 8-week-old ICR mice were purchased from KOATECH, precultured for 1 week, and divided into two groups, each group having 5 mice. As described in Example 1, the experimental animals were divided into two groups, and then the first group was determined as a negative control, and to the second group, myricetin was orally administered daily at a concentration of 50 mg/kg using a 1 ml syringe for 2 weeks.
To measure an effect of myricetin on the sensorimotor function, a rotarod test (Panlab&Harvard, Spain) was performed on the mice in the control group and the myricetin-administered group. The rotarod test was performed to measure motor coordination (exercise adaptation) and a sense of balance of the animal (Michel Pratte et al., Behavioural brain research 216:313-320, 2011; Medina R. et al., FEBS Lett. 180(1): 77-80, 1985).
A tail of the mouse was put on a rotarod, and a speed of the rotarod was increased from 4 to 40 rpm within 5 minutes by an increase of 4 rpm at 30-second intervals. The time during which the mouse stayed on the rotarod was measured. The experiment was repeated five times, and the time during which the mouse stayed the longest on the rotarod was used as a result value.

[2] = Change in body weight of SD rats; format: in vivo, rat; conditions: 50 mg/kg for 5 days, 225 g before administration, control group 285 g, FIG. 5A
Experimental: 7-week-old SD rats were purchased from KOATECH, precultured for 1 week, and randomly divided into two groups, each group having 5 rats. First, 50 mg/kg of myricetin was administered into the test group, and phosphate buffered saline was administered into the control group for 5 days. A change in body weight was measured using an electric measure (CAS, China). Before administration, the body weights of the rats in each group were the same as 225 g on average, but after the end of the experiment, the body weights of the rats in the control group were 285 g on average, and the body weights of the rats in the myricetin-administered group were 275 g on average (FIG. 5A).

[3] = test system: PPAR-δ gene; experiment: Real time PCR gene expression in mouse myotube: PPAR-δ; format: cell-based; conditions: C2C12 myotubes, 10, 30 and 100 μM, 16 hours, corrected with β-actin, FIG. 4C
Experimental: (§1) Mouse myoblasts were purchased from the Korean Cell Line Bank (KCLB), and base sequences of primers for β-actin, SIRT-1, PGC-1α, NRF-1 and PPAR-δ genes were as follows:
(§2) 1×10^7 C2C12 (mouse myoblasts) differentiated into myotubes using 2% horse serum […]. The mouse myotube was treated with myricetin by concentration and cultured for 16 hours, RNA was extracted from the myotube using TRizol, and then cDNA was synthesized through reverse transcription PCR (RT-PCR).
(§3) Real time PCR was performed using β-actin as a control and the primers for respective genes (95° C. for 3 minutes, <95° C. for 10 seconds, 60° C. for 10 seconds, 72° C. for 30 seconds>−39 cycles, 95° C. for 10 seconds, 65° C. for 5 seconds). The PGC-1α, NRF-1, PPAR-δ, and SIRT-1 were corrected with the β-actin, and the resulting value was obtained.

[4] = Daily food intake of SD rats (action metabolism meter); format: in vivo, rat; conditions: 50 mg/kg for 5 days, FIG. 5B
Experimental: 7-week-old SD rats were purchased from KOATECH, precultured for 1 week, and randomly divided into two groups, each group having 5 rats. First, 50 mg/kg of myricetin was administered into the test group, and phosphate buffered saline was administered into the control group for 5 days. The investigation of food intake was performed by automatically measuring the daily food intake of the phosphate buffered saline-administered mouse and the myricetin-administered mouse using an action metabolism meter (Panlab&Harvard, Spain). The average food intake was determined as an average food intake of each of the five rats in one group.

[5] = test system: PGC-1α gene; experiment: Real time PCR gene expression in mouse myotube: PGC-1α; format: cell-based; conditions: C2C12 myotubes, 10, 30 and 100 μM, 16 hours, corrected with β-actin, FIG. 4A
Experimental: as §1, §2, §3

[6] = test system: ICR mice; experiment: Treadmill run to exhaustion (endurance exercise capacity); format: in vivo, mouse; conditions: 50 mg/kg oral daily for two weeks, vs phosphate buffered saline control, p<0.0005, FIG. 1
Experimental: Ten 8-week-old ICR mice were purchased from KOATECH, precultured for 1 week, and then divided into two groups, each group having five mice. The first group was set up as a negative control by administering phosphate buffered saline, and to the second group, myricetin was orally administered daily at a concentration of 50 mg/kg for two weeks. To measure a change in endurance exercise capacity due to myricetin, the animals in the negative control and the myricetin-administered group were run on a treadmill (Panlab&Harvard, Spain). An exercise performance protocol was configured to make the mice run until exhaustion at 25 cm/sec for 20 minutes, 30 cm/sec for 20 minutes, 33 cm/sec for 20 minutes, 36 cm/sec for 20 minutes and 36 cm/sec for 15 minutes with a gradient of 5°, and 30 cm/sec for 15 minutes and 41 cm/sec with a gradient of 10°. To adapt the mice to running on the treadmill, the day before the experiment, they were run at 27 cm/sec for 10 minutes with a gradient of 5°. The mice were not fed for two hours before the running on the treadmill on the day of the experiment, and then the maximum exercise capacity of the experimental animals was measured after the running on the treadmill. […]

[7] = test system: SIRT-1 gene; experiment: Real time PCR gene expression in mouse myotube: SIRT-1; format: cell-based; conditions: C2C12 myotubes, 10, 30 and 100 μM, 16 hours, corrected with β-actin, FIG. 4D
Experimental: as §1, §2, §3

[8] = test system: ICR-series mice; experiment: Grip strength test (maximum muscle strength); format: in vivo, mouse; conditions: 50 mg/kg oral daily for two weeks, vs negative control, p<0.005 / p<0.00005, FIGS. 2A and 2B
Experimental: To measure an effect of myricetin on enhancing endurance exercise capacity of a mouse, ten 8-week-old ICR-series mice having a body weight of 30±5 g were used. As described in Example 1, the experimental animals were divided into two groups. The first group was determined as a negative control, and to the second group, myricetin was orally administered daily at a concentration of 50 mg/kg for two weeks. To measure a change in the maximum strength of a muscle due to myricetin, a grip strength test (Bioseb, France) was performed on the animals in the control group and the myricetin-administered group. Maximum grip strengths of the front paws and rear paws were measured by pulling a tail of the mouse backward while the mouse grabbed a grip strength tester. The grip strength was measured three times, and an average value was used.

[9] = test system: NRF-1 gene; experiment: Real time PCR gene expression in mouse myotube: NRF-1; format: cell-based; conditions: C2C12 myotubes, 10, 30 and 100 μM, 16 hours, corrected with β-actin, FIG. 4B
Experimental: as §1, §2, §3

O=c1c(O)c(-c2cc(O)c(O)c(O)c2)oc2cc(O)cc(O)c12 [myricetin, 3,5,7-trihydroxy-2-(3,4,5-trihydroxyphenyl)-4-chromenone]
time during which the mouse stayed on the rotarod [1]: longer
body weight on average after the end of the experiment [2]: 275 g
expression of PPAR-δ compared to the control group [3]: increased two to three times
average daily food intake vs phosphate buffered saline-administered group [4]: smaller
expression of PGC-1α compared to the control group [5]: increased two to three times
time run on the treadmill until exhaustion (maximum exercise capacity) [6]: longer
expression of SIRT-1 compared to the control group [7]: increased two to three times
maximum grip strength of front paws and rear paws (maximum muscle strength) [8]: increased
expression of NRF-1 compared to the control group [9]: increased two to three times

Reference: patent US9675580B2, “Method of treatment for enhancing exercise performance” (priority 2012, dated 2017)
